The target of the experiment is Induced myeloid leukemia cell differentiation protein Mcl-1 (Homo sapiens) (UniProt Q07820). The experiment is described as follows: blockers of Bid binding to Mcl-1 – biochemical, TR-FRET, dose response (AID 1418). Conditions: Mcl-1/Bid peptide binding, TR-FRET (europium/Dy647), 2 hr. A general note: Time-resolved FRET reads energy transfer from a long-lived donor to a nearby acceptor.

Among the data in PubChem BioAssay AID1418 (Emory University Molecular Libraries Screening Center, 2008) are IC50 values, retold here.

Structures are written as SMILES. Where “and” joins values, the source holds several entries; their conditions need not be identical. Equal entries are not always repeated. Calls of active or inactive are those of the source. The rule behind the calls is not given here.

Sequence of Induced myeloid leukemia cell differentiation protein Mcl-1 (Homo sapiens) (Q07820 whole entry, looked up): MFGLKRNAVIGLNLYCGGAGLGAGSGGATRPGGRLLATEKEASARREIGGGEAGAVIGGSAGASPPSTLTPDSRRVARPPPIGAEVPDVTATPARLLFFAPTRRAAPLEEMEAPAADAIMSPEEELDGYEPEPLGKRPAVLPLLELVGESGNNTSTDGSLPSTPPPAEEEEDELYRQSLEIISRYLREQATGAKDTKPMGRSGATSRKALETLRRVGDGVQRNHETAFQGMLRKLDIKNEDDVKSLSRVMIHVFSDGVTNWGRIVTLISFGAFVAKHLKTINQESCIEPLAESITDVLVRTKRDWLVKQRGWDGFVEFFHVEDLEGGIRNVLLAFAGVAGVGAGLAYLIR

For the molecule `CSc1nc(SCCO)c2sc3nc(-c4ccco4)c4c(c3c2n1)CC(C)(C)OC4`, the IC50 (usually the midpoint of a concentration-inhibition curve) is 7.5 µM. As to `O=C(N=Nc1c(O)[nH]c2ccc(Cl)cc12)c1cc(-c2cccs2)nc2ccccc12`, the IC50 was 0.57 µM.

Regarding `Cc1nc(NC(=O)c2ccccc2)sc1-c1csc(Nc2ccc(C(=O)O)cc2)n1`, the IC50 was 9.88 µM.

As to `CCN1C(=O)/C(=c2\s/c(=C3\Sc4ccccc4N3C)c(=O)n2C)N(C)C1=S`, the IC50 result is “inactive”. On to `COc1ccc(/C=N/NS(=O)(=O)c2ccccc2)cc1OC(=O)c1ccc(C)cc1`, for which the IC50 was > 54 µM (inactive).

Take `CC(C)[n+]1ccn(C2=C([O-])c3ccccc3C(=O)/C2=N\S(=O)(=O)c2ccccc2)c1`: the IC50 was > 54 µM (inactive). As for `NC(=O)c1cccn1-c1ncc(C(F)(F)F)cc1Cl`, the figure is > 54 µM (inactive); as for `CCOC(=O)c1[nH]cnc1C(=O)Nc1ccncc1`, > 54 µM (inactive). To `C=CCOC(=O)/C=C/C(=O)NC(N)=O` belongs > 54 µM (inactive); to `NC(=O)NC(CC(=O)NCCc1ccc(S(N)(=O)=O)cc1)c1ccc(Cl)cc1` (stereo unspecified), > 54 µM (inactive). As for `O=[N+]([O-])c1cc(Br)c(O)c(/C=N/Nc2nnnn2-c2cccc3ccccc23)c1`, the figure is 13.9 µM; as for `CCN(CC)c1ccc(NC(=O)Cn2ncc3c(C)n(Cc4ccccc4F)c(C)c3c2=O)c(C)c1`, 0.53 µM; as for `COc1cc(NS(=O)(=O)c2ccc(NC(=S)NC(=O)c3sc4ccccc4c3Cl)cc2)nc(OC)n1`, > 54 µM (inactive). With `O=C(CSc1nnc(-c2ccncc2)o1)NCc1ccccc1Cl`, the IC50 is > 54 µM (inactive). As for `CC(=O)Cc1cc(O)c2ccccc2c1OC(=O)c1ccc(Br)cc1`, the figure is > 54 µM (inactive). With `COCC(O)CSc1nc(C)[nH]c1[N+](=O)[O-]` (stereo unspecified), the IC50 is > 54 µM (inactive). Regarding `CNc1nn(-c2cccc(Cl)c2)nc1N`, the IC50 is > 54 µM (inactive).

As to `O=C(c1ccccc1)N1CCN(Cc2ccccc2Br)CC1`, the IC50 was > 54 µM (inactive). On to `Cc1ccccc1NC(=O)c1c(C)[nH]c(=S)c(C#N)c1-c1ccc(Cl)cc1`, for which the IC50 is > 54 µM (inactive). For `Clc1ccccc1CN1CCc2sccc2C1`, the IC50 was > 54 µM (inactive).

In the case of `Cc1ccc(CNc2nc(C)nc3sc4c(c23)CCC4)cc1`, the IC50 was > 54 µM (inactive). To `COc1ccc(-c2csc(NC(=S)NC(=O)/C=C/c3ccco3)n2)cc1OC` belongs > 54 µM (inactive); to `CCOC(=O)c1c(-c2ccco2)csc1NC(=O)CSc1nnc(N)s1`, > 54 µM (inactive); to `CCOc1ccccc1Nc1nc(-c2sc(NC(=O)c3ccc([N+](=O)[O-])cc3)nc2C)cs1`, 1.37 µM. As for `N#Cc1cccc(NC(=O)CSc2ccc3c4c(cccc24)C(=O)c2ccccc2-3)c1`, the figure is 2.65 µM; as for `CCOC(=O)c1c(C)oc2cc(Br)c(OC(=O)N3CCOCC3)cc12`, > 54 µM (inactive). Turning to `O=C(O)c1cc(-c2ccc(/C=C3/SC(=S)N(Cc4ccccc4)C3=O)o2)ccc1Cl`, the half-maximal inhibitory concentration (IC50) was 1.7 µM. For the molecule `CCCCCCCCCCCCCCCC[n+]1cccc2ccccc21`, the IC50 is 6.64 µM. To `CCc1c(C(=O)Nc2cc(C)ccc2OC)[nH]c(C)c1C(C)=O` belongs > 54 µM (inactive); to `Cc1n[nH]c(=S)c2nn(-c3ccccc3)c(C)c12`, > 54 µM (inactive). As for `O=C(O)CCCCCN1C(=O)/C(=C\c2cn(-c3ccccc3)nc2-c2cccs2)SC1=S`, the figure is 9.29 µM. As for `COc1cc(/C=C2\SC(=O)N(c3ccc(Cl)cc3)C2=O)cc([N+](=O)[O-])c1O`, the figure is 1.58 µM; as for `Cc1cccc(NC(=O)C2C(C(=O)O)C3C=CC2C32CC2)c1C` (stereo unspecified), > 54 µM (inactive); as for `Cc1c(C(=O)N/N=C/c2ccc(-c3ccccc3[N+](=O)[O-])o2)sc(N)c1C#N`, 14.1 µM. On to `CCOC(=O)c1c2ccc(OCC(=O)N/N=C/c3ccc(C)cc3)cc2n2ccccc12`, for which the IC50 is 6.23 µM. For the molecule `CCCCN(Cc1cc2cc(OC)ccc2[nH]c1=O)C(=O)c1ccccn1`, the IC50 was > 54 µM (inactive).

On to `CC1=C(C#N)C(=O)NC(=O)/C1=C\c1ccc(-c2ccc(C)cc2[N+](=O)[O-])o1`, for which the IC50 is 1.09 µM.

`NS(=O)(=O)c1ccc(N/N=C/c2ccc(O)c(O)c2O)c([N+](=O)[O-])c1`: the IC50 is 3.17 µM.

On to `Oc1c(C(c2ccc(Cl)cc2)N2CCCC2)cc(Cl)c2cccnc12` (stereo unspecified), for which the IC50 is 1.16 µM. As to `CN(C)c1ccc(-c2nn3c(-c4ccc(Cl)cc4Cl)nnc3s2)cc1`, the IC50 was 0.77 µM. To `O=[N+]([O-])c1cc(Br)c(O)c(/C=N/Nc2nc3ccccc3s2)c1` belongs 1.16 µM. As for `C=CCc1cccc2cc(C(=O)Nc3ccc(S(=O)(=O)Nc4nnc(CC)s4)cc3)c(=O)oc12`, the figure is > 54 µM (inactive); as for `CC(/C=N\Nc1nnc2c(n1)[nH]c1c(C)cccc12)=C\c1ccco1`, 1.66 µM.

With `O=[N+]([O-])C(=c1ccc2c(c1)N1C3=C(CCCC3)CC3CCCCC31N=2)[N+](=O)[O-]` (stereo unspecified), the IC50 is 0.73 µM. To `COC(=O)c1ccc2c(=O)n(CCCCCC(=O)NCc3ccc4c(c3)OCO4)c(=O)[nH]c2c1` belongs “inactive”. As for `COC(=O)c1ccc(=O)c2nc3/c(=C/O)c(O)cc(=O)c3[nH]c12`, the figure is 3.23 µM; as for `Cc1ccc(-n2cccc2/C=C2/C(=N)N3C(=NC2=O)SN=C3S(C)(=O)=O)cc1Cl`, 10.9 µM. `Cc1ccc(Nc2cc(=O)n(C3CCCCC3)c(=O)[nH]2)cc1C`: the IC50 was > 54 µM (inactive).

As for `Cc1ccc(-c2nc(N3CCOCC3)sc2C(=O)N2CCCCC2)cc1`, the IC50 is > 54 µM (inactive).

For `Cc1ccc(-n2c(C)n[nH]c2=S)cc1C`, the IC50 is > 54 µM (inactive).

With `COc1ccc(OC(=O)c2ccncc2)cc1`, the IC50 is > 54 µM (inactive).

Regarding `COc1ccc(N/C=C2\C(=O)CCc3c2oc2cc(Cl)c(O)c(Cl)c32)cc1`, the IC50 is 0.79 µM. As for `COc1ccc(CCNC(=O)c2ccc(CNS(=O)(=O)c3ccc(C(C)(C)C)cc3)cc2)cc1OC`, the figure is > 54 µM (inactive); as for `COc1cc(/C=C2/SC(N)=NC2=O)ccc1Oc1ccc([N+](=O)[O-])cc1[N+](=O)[O-]`, 3.5 µM. On to `O=C(NCC1CCCO1)c1cc([N+](=O)[O-])ccc1Cl` (stereo unspecified), for which the IC50 was > 54 µM (inactive).

For the molecule `O=C(CCC(=O)c1ccc(Oc2ccccc2)cc1)Nc1cccc(Cl)c1`, the IC50 was > 54 µM (inactive). To `Cc1ccc2[nH]c(=O)c(-c3nc4cc(C)ccn4c3NCc3ccco3)cc2c1` belongs 12.6 µM; to `CN(C(=O)c1ccc(C#N)cc1)c1nnc(-c2cnccn2)s1`, > 54 µM (inactive); to `COc1ccc(N=Nc2ccc(O)c3ncccc23)cc1`, 15.1 µM. With `O=C1C(C=NCc2ccncc2)=C(O)c2ccccc21`, the IC50 is > 54 µM (inactive). Consider `COc1cccc2c1nc(C)c1cc(C)oc12`, for which the IC50 is > 54 µM (inactive).

With `O=C(NCCc1ccccc1)C1CCN(S(=O)(=O)c2ccc(-c3nn[nH]n3)cc2)CC1`, the IC50 was > 54 µM (inactive). Take `CN(C)S(=O)(=O)c1cccc(NC(=O)c2cc3c(=O)n4ccccc4nc3s2)c1`: the IC50 is > 54 µM (inactive). Turning to `O=C(CN1C(=O)COc2ccccc21)N(Cc1ccc2c(c1)OCO2)CC1CCCO1` (stereo unspecified), the IC50 was > 54 µM (inactive). To `O=C(Nc1ccc(-c2nc3ccc(NC(=O)c4cccs4)cc3[nH]2)cc1)c1cccs1` belongs 0.79 µM; to `O=C(O)[C@H](Cc1ccccc1)N1Cc2ccccc2C1=O`, 22.3 µM; to `CC1(C)CC(=O)C(C(c2cccnc2)C2C(=O)CC(C)(C)CC2=O)C(=O)C1`, > 54 µM (inactive). As to `Cc1cccc(N(CC(=O)Nc2c(C)n(C)n(-c3ccccc3)c2=O)S(C)(=O)=O)c1`, the IC50 was > 54 µM (inactive).

Consider `O=c1c(O)cccc2cc(O)c(O)c(O)c12`, for which the IC50 is 0.92 µM.

With `Cc1cccc(C)c1NC(=O)C1c2ccccc2Oc2ccccc21`, the IC50 was > 54 µM (inactive). `O=C1Nc2ccccc2/C1=N/N=C/c1ccc(-c2ccc([N+](=O)[O-])cc2)o1`: the IC50 is 0.59 µM. To `O=C(CSc1nc(-c2ccccc2)cc(C(F)(F)F)n1)N1CCOCC1` belongs > 54 µM (inactive); to `CCCC(=O)Nc1nnc(-c2cccc(OCC)c2)s1`, > 54 µM (inactive).

For the molecule `Cc1cc2c(C(C)C)c(O)c(O)c(C=O)c2c(O)c1-c1c(C)cc2c(C(C)C)c(O)c(O)c(C=O)c2c1O`, the IC50 is 1.17 µM and 0.86 µM. Regarding `Cc1ccccc1C(=O)NC(=S)Nc1sc2c(c1C#N)CCCC2`, the IC50 was > 54 µM (inactive). To `CCOc1ccccc1NC(=O)CN(C)S(=O)(=O)c1cccc2nsnc12` belongs > 54 µM (inactive); to `Cc1nc(CSc2nc3[nH]ncc3c(=O)n2-c2ccccc2)cs1`, > 54 µM (inactive); to `Cc1cc(NS(=O)(=O)c2ccc(NC(NC(=O)C(C(F)(F)F)C(F)(F)F)(C(F)(F)F)C(F)(F)F)cc2)no1`, 1.62 µM. On to `O=c1cc(-c2ccc([N+](=O)[O-])cc2)nc2cc(-c3ccc(Cl)cc3)[nH]n12`, for which the IC50 was 4.96 µM.

As to `N=c1cc(C2(O)CCCCC2)n2c(nc3ccccc32)s1`, the IC50 is > 54 µM (inactive). As for `C=C1C(=O)[C@@]23[C@H](O)C[C@@H]4C(C)(C)CC[C@H](O)[C@]4(C)[C@@H]2C[C@H](O)[C@@H]1[C@H]3O`, the IC50 is > 54 µM (inactive).

As to `COC(=O)c1ccccc1NC(=O)COC(=O)/C=C/c1ccco1`, the IC50 was > 54 µM (inactive). As for `COC(=O)c1ccc(Oc2coc3cc(OCc4ccc([N+](=O)[O-])cc4)ccc3c2=O)cc1`, the figure is > 54 µM (inactive); as for `CCOc1cccc(CNCCO)c1OCc1ccc(Cl)cc1Cl`, > 54 µM (inactive). `CN(C)S(=O)(=O)c1cccc(N=c2scc(-c3ccc4c(c3)NC(=O)CO4)n2CC2CCCO2)c1` (stereo unspecified): the IC50 is > 54 µM (inactive). As for `COc1ccc(-n2c(=O)cc(N3CCOCC3)[nH]c2=O)cc1`, the figure is > 54 µM (inactive).
